This is an account of results in patent US8962860B2, “Inhibitors of glutaminyl cyclase” (Probiodrug AG, priority 2008, dated 2015).

Each structure is given as a SMILES string.

Data set [1] can be described thus: Log BB screen: brain compound level and log BB in mice. The note with it: single i.v. injection; for concentration at 1 h: iv, 10 mg/ml, mouse, brain, read-out: Brain concentration 1 h after application. The format is in vivo. As to the method: Screening for brain compound level and log BB was done in mice. Compound was applied by a single i.v. injection. […] At least 3 animals were analyzed per compound. Animals were sacrificed 1 h after compound application and blood was collected by heart puncture. Serum was prepared from blood. Animals were perfused with PBS and brains were collected. Compound level in serum and brain were determined by HPLC-MS/MS analysis. Log BB were calculated as follows: [formula]

Data set [2] concerns pGlu-Aβ3-42 in transgenic (tg) mice, which overexpress human AβQ3-42. Description: Treatment of Aβ-transgenic mice, pGlu-Aβ ELISA of brain homogenates. The format is in vivo. As to the method:
6 (1-(1H-benzo[d]imidazol-5-yl)-5-(4-propoxyphenyl)imidazolidine-2,4-dion). Example compound 6 was implemented into the chow and the transgenic animals were treated orally. The treatment is specified in the table below. The mice used in this study were produced as described in WO 2009/034158.
Following treatment, tg mice were sacrificed, the brains were removed from the skull, flushed with ice cold saline and placed shortly on filter paper. Brain tissues without cerebellum were homogenized (Dounce homogenizer) in 2.5 ml 2% SDS in distilled water (SDS wash fraction), sonificated and centrifuged at 75,500×g for 1 hour at 4° C. The supernatant was removed and the pellet resuspended in 0.5 ml 70% formic acid (formic acid fraction) and neutralized by addition of 9.5 ml 1 M Tris solution. The formic acid (FA) is considered as the homogenate containing the highly insoluble Aβ peptides, including pGlu-Aβ species (Kawarabayashi et al., (2001), J. Neurosci. 21, 372-381). Aβx-40, Aβx-42 and Aβ3(pE)-42 specific sandwich ELISAs (all from IBL, Hamburg, Germany) were performed according to the manufacturer's manual. Samples were diluted to fit within the range of the standard curve using EIA buffer, which is supplied with the ELISA kits.
For orientation: An ELISA detects its analyte on a solid surface through an enzyme-linked reagent.

Take `O=C1NC(=O)N(c2ccc3[nH]cnc3c2)C1c1ccc(Cl)c(C(F)(F)F)c1` (stereo not shown) [Example 7, 1-(1H-benzo[d]imidazol-5-yl)-5-(4-chloro-3-(trifluoromethyl)phenyl)imidazolidine-2,4-dione]: in data set [1], the concentration at 1 h stood at 38.2 ng/g and the “logBB mouse 1 h after i.v. injection” value is −2.5.

As for `O=C1NC(=O)N(c2ccc3[nH]cnc3c2)C1c1ccc(Cl)cc1` (stereo not shown) [Example 13, 1-(1H-benzo[d]imidazol-5-yl)-5-(4-chlorophenyl)imidazolidine-2,4-dione], in data set [1], the concentration at 1 h turned out to be 31.4 ng/g and the “logBB mouse 1 h after i.v. injection” value is reported as −1.4.

Take `O=C1NC(=O)N(c2ccc3[nH]cnc3c2)C1c1ccc2nsnc2c1` (stereo not shown) [Example 1, 5-(benzo[c][1,2,5]thiadiazol-6-yl)-1-(1H-benzo[d]imidazol-5-yl)imidazolidine-2,4-dione]: in data set [1], the concentration at 1 h is 118 ng/g and the “logBB mouse 1 h after i.v. injection” value was −0.67.

As for `CCCOc1ccc(C2C(=O)NC(=O)N2c2ccc3[nH]cnc3c2)cc1` (racemic) [Example 6, 1-(1H-benzo[d]imidazol-5-yl)-5-(4-propoxyphenyl)imidazolidine-2,4-dione], the “pGlu-Aβ3-42 concentration in formic acid extracts” value in data set [2] (tg mice treated orally via chow (4.8 g/kg) for two months, vs placebo) is listed as “significant reduction”. Besides, in data set [2] (tg mice treated orally via chow for two months, brainstem), the “pGlu-Aβ3-42 concentration in formic acid extracts, brainstem” value is “below the limit of detection”. In data set [1], the concentration at 1 h was 126 ng/g and the “logBB mouse 1 h after i.v. injection” value was −1.6.

`Cc1ccc(O)c(C2C(=O)NC(=O)N2c2ccc3[nH]cnc3c2)c1` (stereo not shown) [Example 3, 1-(1H-benzo[d]imidazol-5-yl)-5-(2-hydroxy-5-methylphenyl)imidazolidine-2,4-dione]: in data set [1], the concentration at 1 h was 17.1 ng/g and the “logBB mouse 1 h after i.v. injection” value is −1.42.

Consider `O=C1NC(=O)C2(Cc3ccccc3C2)N1c1ccc2[nH]cnc2c1` [Example 32, 3-(1H-benzimidazol-5-yl)-1,3′-dihydro-2H,5H-spiro[imidazolidine-4,2′-indene]-2,5-dione], for which, in data set [1], the concentration at 1 h came out at 11.7 ng/g and the “logBB mouse 1 h after i.v. injection” value was −1.2.

For `O=C1NC(=O)N(c2ccc3[nH]cnc3c2)C1c1ccccc1Cl` (stereo not shown) [Example 14, 1-(1H-benzo[d]imidazol-5-yl)-5-(2-chlorophenyl)imidazolidine-2,4-dione], in data set [1], the concentration at 1 h came to 20.2 ng/g and the “logBB mouse 1 h after i.v. injection” value is −1.6.
